Laboratory results: patent US11970469B2 (Oxford University Innovation Limited, priority 2018, dated 2024)

What was measured:
[1] = target: GST-human KRas166 (G12V) GPPNHP (Homo sapiens, UniProt P01116, G12V); experiment: KRas small-molecule screening by SPR (BIACORE T200); format: binding; design: made in house; host or cells: E. coli C41(DE3); key: SPR response units (RU); conditions: compounds at final concentration of 100 uM; immobilised KRAS166 (G12V) GPPNHP; no unit printed (method speaks of response units)
Experimental: For SPR assays pGEX-KRAS(G12V) plasmid was transformed into E. coli C41(DE3). Bacterial cells were cultured at 37° C. to an OD600 of 0.6 and induced with IPTG (final 0.1 mM) at 18° C. over night. The GST fusion proteins were extracted from bacteria pellets after cell disruption in 140 mM NaCl, 2.7 mM KCl, 10 mM NaH2PO4, 1.8 mM KH2PO4, 1 mM EDTA, 2 mM MgCl2 pH 7.4 and purified by glutathione-sepharose column chromatography (GE Healthcare), eluting with 50 mM Tris-HCl pH8.0, 10 mM reduced glutathione, 1 mM DTT, 2 mM MgCl2. The eluted proteins were dialysed against 50 mM Tris-HCl pH8.0, 1 mM DTT, 2 mM MgCl2 and concentrated to 10 mg/ml using a Biomax-30 ULTRAFREE-15 centrifugal filter device (Millipore). Purified KRAS protein was loaded with GPPNHP as described elsewhere (Pacold et al., 2000). Loaded protein was then purified by gel filtration on a HiLoad Superdex-75 HR column (GE Healthcare) in 1×PBS pH7.4, 5 mM MgCl2 and concentrated for storage. Protocol for KRas small-molecule screening and affinity measurements by SPR
To a previously immobilized CM5 chip (GE Healthcare BR-1005-30) with anti GST antibody via amine coupling method, GST in channel 1 and GST-human KRas166 (G12V) GPPNHP in channel 2 were immobilised. GST was immobilised between 2,000 and 5,000 Response units. KRAS166 (G12V) was immobilized between 10,000 to 15,000 Response Units.
In a 96 well plate, compounds were diluted in […], 5 mM MgCl2 and 5% DMSO Buffer to a final concentration of 100 uM. DCAI was used as positive control. Experiment also included a solvent correction curve for 5% DMSO. Screening and evaluation of the protein immobilization and the compounds screening was done accordingly to the BIACORE T200 control and evaluation software.
Calculations for how many response units are required for a 1:1 ratio of compound/protein interaction are shown below. • Protein immobilisation: 10,000 RU; average fragment 300 Da in size. Rmax=(MWA/MWL)×RL×SM • MWA is the molecular weight of the analyte in Da • MWL is the molecular weight of the ligand in Da • RL is the immobilization level in RU • SM is the molar stoichiometry (assume 1:1) • Rmax=300/47,500×10,000×1 • Rmax=63 RU. BRET2 Cell Assay

RASG12D/CRAF FL = experiment: BRET2 cell assay with BRET-based RAS biosensor (RAS-effector) in HEK293T; conditions: 10 uM compound, 20 hours
Experimental: 650,000 HEK293T were seeded in each well of a 6 well plate. 24 hours later, cells were transfected with an appropriated BRET-based RAS biosensor (i.e. RAS-effector) using Lipofectamine 2000 transfection reagent (Thermo-Fisher). Cells were detached 24 hours later and washed with PBS and seeded in a white 96 well plate (clear bottom, PerkinElmer, cat #6005181) in OptiMEM no phenol red medium (Life Technologies) complemented with 4% FBS. Cells were left for 4 hours at 37° C. before adding compounds. Stock compounds were held at 10 mM in 100% DMSO and diluted in OptiMEM no red phenol+4% FBS to reach 10× the final concentration (2% DMSO for each concentration). The final concentrations in the cells were 0, 5, 10 and 20 μM (therefore the intermediate 10× concentrations were 0, 50, 100 and 200 μM. 10 μL of 10× compounds were added in each well of the 96 well plate to 0, 5, 10 and 20 μM final concentrations (with final 0.2% DMSO each). Quadruplicates were performed for each point. Cells were left for an additional 20 hours at 37° C. before the BRET2 signal reading directly after addition of Coelenterazine 400a substrate (10 μM final) to cells (Cayman Chemicals, cat #16157). BRET2 reading was carried out on an Envision instrument (2103 Multilabel Reader, PerkinElmer) with the BRET2 Dual Emission optical module (515 nm±30 and 410 nm±80; PerkinElmer).

[2] = system: DLD1 cells (ATCC CCL-221); experiment: Cell viability assay, DLD-1 (CellTiter-Glo); format: cell-based; conditions: DLD-1 cells; for IC50: Homo sapiens, 72 h, dose response 5, 10, 15, 20 μM; for effect on DLD-1 viability over the range of concentrations: 72 hour, 5, 10, 15, 20 μM (FIG. 1)
Experimental: DLD1 cells (ATCC CCL-221) are cultured in RPMI-1640 medium plus 10% foetal calf serum and 2 mM L-glutamine at 37° C. 5% CO2. Cells are plated onto white clear bottom 96-well plates (5000 cells/well in 200 μl media) and left to adhere overnight at 37° C., 5% CO2. Next day, test compound (1 μl at 200× concentration in 100% DMSO) is added to give final test compound concentration 1× in 0.5% DMSO. After 72 h of incubation at 37° C. 5% CO2, 20 μl CellTiter-Glo reagent (Promega G7572) is added into each well. Plates are incubated at room temperature with shaking for 30 min and then luminescence is read using a PheraStar plate reader. The concentration of compounds that decrease cell viability by 50% is calculated from dose response curves generated using Dotmatics data analysis software Results

| Compound | SPR [1] | IC50 [2] [µM] | BRET RASG12D/CRAF FL % Inhibition (10 uM) (RASG12D/CRAF FL) [%] | effect on DLD-1 viability over the range of concentrations [2] |
| --- | --- | --- | --- | --- |
| COc1cccc(-c2ccc(Nc3ccc(C(=O)NCC4CCN(C)CC4)cc3)cc2)c1 [Example 21, 4-((3′-methoxy-[1,1′-biphenyl]-4-yl)amino)-N-((1-methylpiperidin-4-yl)methyl)benzamide] | 1583 |  |  |  |
| COc1cccc(-c2ccc(Nc3cc(C)cc(C)c3)cc2)c1 [Example 9, N-(3,5-dimethylphenyl)-3′-methoxy-[1,1′-biphenyl]-4-amine] | 28 |  | 2 |  |
| COc1cccc(-c2ccc(Nc3cc(C)cc(C)c3)c(OC)c2F)c1 [Example 8, N-(3,5-dimethylphenyl)-2-fluoro-3,3′-dimethoxy-[1,1′-biphenyl]-4-amine] | 30 |  | 0 |  |
| COc1cc(C)cc(-c2ccc(Nc3ccc(CN(C)C)cc3)cc2)c1 [Example 7, N-(4-((dimethylamino)methyl)phenyl)-3′-methoxy-5′-methyl-[1,1′-biphenyl]-4-amine] | 264 |  | 6 |  |
| COc1cccc(-c2ccc(Nc3cccc(CN(C)C)c3)c(OC)n2)c1 [Example 15, N-(3-((dimethylamino)methyl)phenyl)-2-methoxy-6-(3-methoxyphenyl)pyridin-3-amine] | 84 |  | 35 |  |
| COc1cccc(-c2ccc(Nc3ccc(CN(C)C)cc3)c(OC)c2F)c1 [Example 3, N-(4-((dimethylamino)methyl)phenyl)-2-fluoro-3,3′-dimethoxy-[1,1′-biphenyl]-4-amine] | 177 | 4.5 | 26 |  |
| COc1cccc(-c2ccc(Nc3ccc(CN(C)C)cc3)c(OC)n2)c1 [Example 14, N-(4-((dimethylamino)methyl)phenyl)-2-methoxy-6-(3-methoxyphenyl)pyridin-3-amine] | 152 |  | 42 |  |
| COc1cccc(-c2ccc(Nc3cc(C(=O)N(C)C)ccc3C)cc2)c1 [Example 10, 3-((3′-methoxy-[1,1′-biphenyl]-4-yl)amino)-N,N,4-trimethylbenzamide] | 28 |  | 0 |  |
| N-(3-((2,6-dimethylmorpholino)methyl)phenyl)-3′-methoxy-[1,1′-biphenyl]-4-amine [Example 13] | 43 |  | 9 |  |
| O=C(NCC1COc2ccccc2O1)c1ccco1 (centres unmarked) [Abd-2, reference compound] |  |  |  | does not affect DLD-1 viability |
| COc1cccc(-c2cccc(CC3(C(=O)NCCn4ccnc4)CCOCC3)c2)c1 [PPIN-2, reference compound] |  |  |  | does not affect DLD-1 viability |
| COc1cccc(-c2ccc(Nc3ccc(C(=O)NCC4CCN(Cc5ccccc5)CC4)cc3)cc2)c1 [Example 23, N-((1-benzylpiperidin-4-yl)methyl)-4-((3′-methoxy-[1,1′-biphenyl]-4-yl)amino)benzamide] | 99 |  |  |  |
| COc1cccc(-c2ccc(Nc3ccc(CN(C)C)cc3)cc2)c1 [Example 1, N-(4-((dimethylamino)methyl)phenyl)-3′-methoxy-[1,1′-biphenyl]-4-amine] | 230 | 5.3 | 24 |  |
| COc1cccc(-c2ccc(Nc3cccc(CN4CC(C)OC(C)C4)c3)cc2)c1 (centres unmarked) [Example 12, N-(3-((2,6-dimethylmorpholino)methyl)phenyl)-3′-methoxy-[1,1′-biphenyl]-4-amine] | 55 |  | 0 |  |
| COc1cccc(-c2ccc(Nc3cc(CN(C)C)ccc3C)cc2)c1 [Example 11, N-(5-((dimethylamino)methyl)-2-methylphenyl)-3′-methoxy-[1,1′-biphenyl]-4-amine] | 69 |  | 1 |  |
| COc1cccc(-c2ccc(Nc3ccc(C(=O)NCC4CCNCC4)cc3)cc2)c1 [Example 20, 4-((3′-methoxy-[1,1′-biphenyl]-4-yl)amino)-N-(piperidin-4-ylmethyl)benzamide] | 1426 |  |  |  |

More lines, main results first:

| SPR [1] | IC50 [2] [µM] | Compound | BRET RASG12D/CRAF FL % Inhibition (10 uM) (RASG12D/CRAF FL) [%] | effect on DLD-1 viability over the range of concentrations [2] |
| --- | --- | --- | --- | --- |
| 245 |  | COc1cc(F)cc(-c2ccc(Nc3ccc(CN(C)C)cc3)cc2)c1 [Example 6, N-(4-((dimethylamino)methyl)phenyl)-3′-fluoro-5′-methoxy-[1,1′-biphenyl]-4-amine] | 22 |  |
| 209 |  | COc1cccc(-c2ccc(Nc3ccc(CN(C)C)cc3)cn2)c1 [Example 16, N-(4-((dimethylamino)methyl)phenyl)-6-(3-methoxyphenyl)pyridin-3-amine] | 0 |  |
| 396 |  | COc1cccc(-c2ccc(Nc3cccc(C(=O)NCC4CCNCC4)c3)cc2)c1 [Example 17, 3-((3′-methoxy-[1,1′-biphenyl]-4-yl)amino)-N-(piperidin-4-ylmethyl)benzamide] |  |  |
|  | 8.2 | COc1nc(-c2cccc3c2OCCO3)ccc1Nc1ccc(CN(C)C)cc1 [Abd-7, reference compound] |  |  |
| 80 |  | COc1cc(-c2ccc(Nc3ccc(CN(C)C)cc3)cc2)ccc1F [Example 4, N-(4-((dimethylamino)methyl)phenyl)-4′-fluoro-3′-methoxy-[1,1′-biphenyl]-4-amine] | 24 |  |
| 233 | 7.2 | COc1cccc(-c2ccc(Nc3ccc(CN(C)C)cc3)c(OC)c2)c1 [Example 2, N-(4-((dimethylamino)methyl)phenyl)-3,3′-dimethoxy-[1,1′-biphenyl]-4-amine] | 18 |  |
| 127 |  | COc1cc(-c2ccc(Nc3ccc(CN(C)C)cc3)cc2)cc(F)c1F [Example 5, N-(4-((dimethylamino)methyl)phenyl)-3′,4′-difluoro-5′-methoxy-[1,1′-biphenyl]-4-amine] | 33 |  |
| 119 |  | COc1cc(-c2ccc(Nc3ccc(CN(C)C)cc3)cc2)ccc1C [Example 18, N-(4-((dimethylamino)methyl)phenyl)-3′-methoxy-4′-methyl-[1,1′-biphenyl]-4-amine] | 13 |  |
